Tests used:
[1] = tested on: MCF-7 cells; assay: Inhibition of proliferation of MCF-7 cells (ATP method, Cell Titer-Glo); assay type: cell-based; conditions: Homo sapiens, MCF7; MCF-7 cells, 72 h
Protocol: This experiment was intended to test the inhibitory effects of the compounds disclosed herein on the proliferation of MCF-7 Cells by using the ATP method, and to evaluate the in vitro activity of the compounds according to the IC50 values.
MCF-7 cells (TCHu74, National Collection of Authenticated Cell Cultures) were seeded into a 96-well plate with an MEM (hyclone, SH30024.01B) medium containing 10% FBS (Gibco, 10099-141), 1% sodium pyruvate (sigma, 58636) and 1% non-essential amino acid (sigma, M7145) at a density of 4,000 cells/well and cultured at 37° C. with 5% CO2. 20 mM stock solutions of the compounds are prepared, serially diluted with 100% DMSO to a final concentration of 1000×, and then diluted 20-fold with a medium containing 2% FBS. After the cells were cultured for 24 h, the medium was removed. 90 μL of the medium containing 2% FBS and 10 μL of a drug were added to each well, and 10 μL of DMSO was added to the control group. The mixtures were well mixed by gentle shaking. The blank group contained only 100 μL of the medium containing 2% FBS. The cells were cultured in an incubator at 37° C. with 5% CO2 for 72 h, and then 50 μL of mixed Cell Titer-Glo (Promega, G7571) was added to each well. The mixtures were well mixed by shaking and let stand at room temperature for 10 min, and the chemiluminescence signal values were determined.
The chemiluminescence signal value was plotted against the compound concentration (in log form) using Graphpad Prism, and the IC50 values of the compounds were obtained.

[2] = target: ERα (Homo sapiens (Human), UniProt P03372); assay: Degradation of ERα in MCF-7 cells (ELISA); assay type: cell-based; conditions: for Dmax at 3 µM: MCF7, read-out: Emax degradation (%); for DC50: MCF-7 cells, 16 to 18 h, read-out: EC50 (nM), degradation of ERα
Chain of ERα (P03372 whole entry): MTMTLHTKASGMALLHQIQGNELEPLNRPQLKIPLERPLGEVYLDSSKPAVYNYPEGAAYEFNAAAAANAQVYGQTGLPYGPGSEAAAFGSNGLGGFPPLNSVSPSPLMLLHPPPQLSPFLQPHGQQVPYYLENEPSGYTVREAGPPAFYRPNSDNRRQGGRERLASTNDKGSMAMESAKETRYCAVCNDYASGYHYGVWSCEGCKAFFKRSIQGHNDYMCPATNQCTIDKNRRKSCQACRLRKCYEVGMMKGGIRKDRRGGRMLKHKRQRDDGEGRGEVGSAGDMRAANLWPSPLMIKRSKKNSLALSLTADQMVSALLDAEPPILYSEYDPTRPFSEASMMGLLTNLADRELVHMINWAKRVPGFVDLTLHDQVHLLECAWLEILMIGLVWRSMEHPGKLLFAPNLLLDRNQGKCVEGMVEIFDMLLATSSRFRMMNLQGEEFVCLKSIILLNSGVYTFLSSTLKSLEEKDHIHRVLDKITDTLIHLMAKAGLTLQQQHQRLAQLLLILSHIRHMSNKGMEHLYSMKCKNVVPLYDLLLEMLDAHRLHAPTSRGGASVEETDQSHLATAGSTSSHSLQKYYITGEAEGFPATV
Protocol: ERα-positive breast cancer cell line MCF-7 cells were cultured in a DMEM/F12 medium (HyClone, SH30023.01) containing 10% fetal bovine serum (Corning, 35-010-CV). […] The following day the compounds were serially diluted with DMSO and further diluted with the phenol red-free DMEM/F12 medium containing 5% charcoal-stripped fetal bovine serum. 20 μL of a diluted compound was added to each well of the 48-well plate at final concentrations of 3000, 300, 30, 3, 0.3, 0.03 and 0.003 nM. The 48-well plate was placed in the incubator for 16 to 18 h. A 96-well plate was coated with the capture antibody from the human ERα/NR3A1 total protein assay kit (R&D, DYC5715-5). […] The plate was placed in an incubator at 26° C. overnight. On day 3, the antibody-coated 96-well plate was washed once with PBS, and 200 μL of PBS containing 1% BSA was added to each well. The plate was incubated in an incubator at 37° C. for 1.5 h to be blocked. The cell culture medium supernatant was discarded. The cells were washed once with PBS, and 60 μL of a cell lysis buffer was added to each well. […] The cells were lysed on ice for 15 min, and 300 μL of PBS containing 1 mM EDTA and 0.5% TritonX-100 was added to each well to dilute the urea to 1 M. The blocking buffer in the blocked 96-well plate was discarded, and 100 μL of diluted cell lysis buffer was added to each well. The plate was incubated in an incubator at 37° C. for 2 h and washed 5 times with PBS. A biotinylated assay antibody was diluted to 0.4 μg/mL with PBS containing 1% BSA, and then 100 μL of the assay antibody was added to each well. The plate was incubated in an incubator at 37° C. for 1 h. The plate was then washed five more times, and 100 μL of avidin-HRP diluted 200-fold with PBS containing 1% BSA was added to each well. The plate was incubated at 37° C. for 30 min. The plate was washed five more times, and 100 μL of TMB substrate was added to each well. The plate was incubated at room temperature until blue color appeared, and 100 μL of stop solution was added to each well. OD450 signal values were read using a PHERAstar multi-mode microplate reader. The IC50 values for the inhibitory activity of the compounds were calculated using Graphpad Prism software.

## C[C@@H]1Cc2cc3c(cc2[C@@H](c2ncc(N[C@H]4CCN(CCCF)C4)cc2F)N1CC(F)(F)F)OCO3 [Example 9, 5-Fluoro-N—((S)-1-(3-fluoropropyl)pyrrolidin-3-yl)-6-((5S,7R)-7-methyl-6-(2,2,2-trifluoroethyl)-5,6,7,8-tetrahydro-[1,3]dioxolo[4,5-g]isoquinolin-5-yl)pyridin-3-amine]
[1]
  IC50: 0.35 nM
[2]
  Dmax at 3 µM: 107%
  DC50: 1.04 nM

## C[C@@H]1Cc2cc3c(cc2[C@@H](c2ccc(NC4CN(CCCF)C4)cn2)N1CC(F)(F)CO)OCO3 [Example 14, 2,2-Difluoro-3-((5S,7R)-5-(5-((1-(3-fluoropropyl)azetidin-3-yl)amino)pyridin-2-yl)-7-methyl-7,8-dihydro-[1,3]dioxolo[4,5-g]isoquinolin-6(5H)-yl)propan-1-ol]
[1]
  IC50: 0.36 nM
[2]
  Dmax at 3 µM: 92%
  DC50: 0.5 nM

## C[C@@H]1Cc2cc3c(cc2[C@@H](c2ccc(N[C@H]4CCN(CCCF)C4)cc2)N1CC(F)(F)CO)OCO3 [Example 3, 2,2-Difluoro-3-((5R,7R)-5-(4-(((S)-1-(3-fluoropropyl)pyrrolidin-3-yl)amino)phenyl)-7-methyl-7,8-dihydro-[1,3]dioxolo[4,5-g]isoquinolin-6(5H)-yl)propan-1-ol]
[1]
  IC50: 0.15 nM
[2]
  Dmax at 3 µM: 129%
  DC50: 0.19 nM

## C[C@@H]1Cc2cc3c(cc2[C@@H](c2c(F)cc(O[C@H]4CCN(CCCF)C4)cc2F)N1CC(F)(F)F)OCO3 [Example 15, (5S,7R)-5-(2,6-difluoro-4-(((S)-1-(3-fluoropropyl)pyrrolidin-3-yl)oxy)phenyl)-7-methyl-6-(2,2,2-trifluoroethyl)-5,6,7,8-tetrahydro-[1,3]dioxolo[4,5-g]isoquinoline]
[1]
  IC50: 0.3 nM
[2]
  Dmax at 3 µM: 95%
  DC50: 0.15 nM

## C[C@@H]1Cc2cc3c(cc2[C@@H](c2ccc(N[C@H]4CCN(CCCF)C4)cn2)N1CC(F)(F)F)OCO3 [Example 6, N—((S)-1-(3-fluoropropyl)pyrrolidin-3-yl)-6-((5S,7R)-7-methyl-6-(2,2,2-trifluoroethyl)-5,6,7,8-tetrahydro-[1,3]dioxolo[4,5-g]isoquinolin-5-yl)pyridin-3-amine]
[1]
  IC50: 0.34 nM
[2]
  Dmax at 3 µM: 104%
  DC50: 0.17 nM

## C[C@@H]1Cc2cc3c(cc2[C@@H](c2c(F)cc(N[C@H]4CCN(CCCF)C4)cc2F)N1CC(F)(F)F)OCO3 [Example 2, (S)—N-(3,5-difluoro-4-((5S,7R)-7-methyl-6-(2,2,2-trifluoroethyl)-5,6,7,8-tetrahydro-[1,3]dioxolo[4,5-g]isoquinolin-5-yl)phenyl)-1-(3-fluoropropyl)pyrrolidin-3-amine]
[1]
  IC50: 0.17 nM
[2]
  Dmax at 3 µM: 104%
  DC50: 0.24 nM

## [2H]C1([2H])Oc2cc3c(cc2O1)[C@@H](c1ccc(N[C@H]2CCN(CCCF)C2)cc1)N(CC(F)(F)CO)[C@H](C)C3 [Example 19, 2,2-Difluoro-3-((5R,7R)-5-(4-(((S)-1-(3-fluoropropyl)pyrrolidin-3-yl)amino)phenyl)-7-methyl-7,8-dihydro-[1,3]dioxolo[4,5-g]isoquinolin-6(5H)-yl-2,2-d2)propan-1-ol]
[1]
  IC50: 0.07 nM
[2]
  Dmax at 3 µM: 100%
  DC50: 0.13 nM

## C[C@@H]1Cc2cc3c(cc2[C@@H](c2ncc(N[C@H]4CCN(CCCF)C4)cc2F)N1CC(F)(F)CO)OCO3 [Example 11, 2,2-Difluoro-3-((5S,7R)-5-(3-fluoro-5-(((S)-1-(3-fluoropropyl)pyrrolidin-3-yl)amino)pyridin-2-yl)-7-methyl-7,8-dihydro-[1,3]dioxolo[4,5-g]isoquinolin-6(5H)-yl)propan-1-ol]
[1]
  IC50: 0.23 nM
[2]
  Dmax at 3 µM: 91%
  DC50: 0.45 nM

## C[C@@H]1Cc2cc3c(cc2[C@@H](c2ccc(NC4CN(CCCF)C4)cn2)N1CC(F)(F)F)OCO3 [Example 17, N-(1-(3-fluoropropyl)azetidin-3-yl)-6-((5S,7R)-7-methyl-6-(2,2,2-trifluoroethyl)-5,6,7,8-tetrahydro-[1,3]dioxolo[4,5-g]isoquinolin-5-yl)pyridin-3-amine]
[1]
  IC50: 0.44 nM
[2]
  Dmax at 3 µM: 104%
  DC50: 1.24 nM

## C[C@@H]1Cc2cc3c(cc2[C@@H](c2ccc(N[C@H]4CCN(CCCF)C4)cc2)N1CC(F)(F)F)OCO3 [Example 1, (S)-1-(3-fluoropropyl)-N-(4-((5R,7R)-7-methyl-6-(2,2,2-trifluoroethyl)-5,6,7,8-tetrahydro-[1,3]dioxolo[4,5-g]isoquinolin-5-yl)phenyl)pyrrolidin-3-amine]
[1]
  IC50: 0.31 nM
[2]
  Dmax at 3 µM: 94%
  DC50: 0.32 nM

## C[C@@H]1Cc2cc3c(cc2[C@@H](c2c(F)cc(N[C@H]4CCN(CCCF)C4)cc2F)N1CC(F)(F)CO)OCO3 [Example 5, 3-((5S,7R)-5-(2,6-difluoro-4-(((S)-1-(3-fluoropropyl)pyrrolidin-3-yl)amino)phenyl)-7-methyl-7,8-dihydro-[1,3]dioxolo[4,5-g]isoquinolin-6(5H)-yl)-2,2-difluoro-1-propanol]
[1]
  IC50: 0.03 nM
[2]
  Dmax at 3 µM: 108%
  DC50: 0.04 nM

## C[C@@H]1Cc2cc3c(cc2[C@@H](c2ccc(NC4CN(CCCF)C4)cc2)N1CC(F)(F)CO)OCO3 [Example 18, 2,2-Difluoro-3-((5R,7R)-5-(4-((1-(3-fluoropropyl)azetidin-3-yl)amino)phenyl)-7-methyl-7,8-dihydro-[1,3]dioxolo[4,5-g]isoquinolin-6(5H)-yl)propan-1-ol]
[1]
  IC50: 0.07 nM
[2]
  Dmax at 3 µM: 106%
  DC50: 0.1 nM

— patent US12428428B2, “Tricyclic tetrahydroisoquinoline derivative, preparation method therefor and application thereof in medicine” (JIANGSU HENGRUI MEDICINE CO., LTD., priority 2020, dated 2025)
